Reference: US8063095B2, “IAP BIR domain binding compounds” (Pharmascience Inc., priority 2005, dated 2011)

Columns and labels:
[1] = molecular target: T1, XIAP L-Bir2-Bir3 (GST-XIAP Linker Bir2Bir3RING fusion protein) (Homo sapiens, UniProt P98170); experiment: Caspase de-repression assay using cellular extracts (apoptosome), L-Bir2-Bir3 XIAP; type: biochemical; conditions: 293 cell S100 extract; effective concentration to achieve 50% of activation
T1 construct: made in house; host or cells: E. coli DH5-alpha
Procedure: GST-linker BIR2BIR3Ring: XIAP coding sequence from amino acids 93-497 cloned into PGex4T1 via BamH1 and XhoI. Amino acids 93-497 were amplified from full length XIAP in pGex4t3, using the primers: […] and GCTGCATGTGTGTCAGAGG, using standard PCR conditions. The PCR fragment was TA cloned into pCR-2.1 (invitrogen). Linker BIR2BIR3Ring was subcloned into pGex4T1 by BamHI/XhoI digestion. The plasmid was transformed into E. coli DH5α for use in protein expression and purification. […]
100 ug of 293 cell S100 extract and 0.25 uM-2 uM of GST-XIAP fusion protein (XIAP-Bir3RING, XIAP-Linker Bir2Bir3RING, or full-length XIAP) were co-incubated with serial dilutions of compound (40 uM-5 pM). Caspases present in the extracts were activated by adding 1 mM dATP, 0.1 mM ALLN, 133 ug Cytochrome C (final concentrations), and incubating at 37° C. for 25 minutes. All reactions and dilutions used S100 buffer (50 mM Pipes pH 7.0, 50 mM KCl, 0.5 mM EGTA pH 8.0, 2 mM MgCl2 supplemented with 1/1000 dilutions of 2 mg/ml Cytochalisin B, 2 mg/ml Chymotstatin, Leupeptin, Pepstatin, Antipain, 0.1M PMSF, 1M DTT). Final reaction volume was 30 ul. Caspase-3 activity was measured by overlaying 30 ul of a 0.4 mM DEVD-AMC solution. released AMC cleavage was measured in a TECAN spectrophotometer at 360 nm excitation and 444 nm emission, on a kinetic cycle of 1 hour with readings taken every 5 minutes. Caspase activity was calculated as Vo of AMC fluorescence/sec. Caspase de-repression by our compounds was compared to fully activated extract and activated extract repressed by the presence of XIAP fusion protein.

[2] = system: MDA-MB-231 (breast) cancer cells; experiment: Cell viability (MTT) assay, MDA cells; conditions: Homo sapiens, MTT based assay
Procedure: (§1) MDA-MD-231 (breast) and SKOV-3 (ovarian) cancer cells were cultured in RPMI1640 media supplemented with 10% FBS and 100 units/mL of Penicillin and Steptomycin.
(§2) Viability assays were done on a number of cells including MDA-MB-231, SKOV-3, H460, PC3, HCT-116, and SW480 cells. Cells were seeded in 96 well plates at a respective density of 5000 and 2000 cells per well and incubated at 37° C. in presence of 5% CO2 for 24 hours. Selected compounds were diluted into the media at various concentration ranging from 0.01 uM up to 100 uM. Diluted compounds were added onto the MDA-MB-231 cells. For the MDA-MB-231 SKOV3, H460, PC3, HCT-116, and SW480 cells, the compounds were added either alone or in presence of 1-3 ng/ml of TRAIL. After 72 hours cellular viability was evaluated by MTT based assays.

[3] = molecular target: T2, cIAP-2 bir3 domain (GST-HIAP1(cIAP-2) BIR3) (Homo sapiens, UniProt Q13489); experiment: Fluorescence polarization-based competition assay, cIAP-2; type: binding; conditions: Ki calculated from displacement of fluorescent probe; read-out: Fluorescent polarization (FP) assay cIAP-2
T2 construct: made in house; host or cells: E. coli DH5-alpha
Procedure: GST-HIAP1(cIAP-2) BIR3: HIAP1 coding sequence from amino acids 236-349, cloned into PGex4T3 via BamH1 and XhoI. The plasmid was transformed into E. coli DH5α for use in protein expression and purification.
(§3) A fluorescent peptide probe, Fmoc-Ala-Val-Pro-Phe-Tyr(t-Bu)-Leu-Pro-[…]-Gly-OH was prepared using standard Fmoc chemistry on 2-chlorotrityl chloride resin (Int. J. Pept. Prot. Res. 38:555-561, 1991). Cleavage from the resin was performed using 20% acetic acid in dichloromehane (DCM), which left the side chain still blocked. The C-terminal protected carboxylic acid was coupled to 4′-(aminomethy)fluorescein (Molecular Probes, A-1351; Eugene, Oreg.) using excess diisopropylcarbodiimide (DIC) in dimethylformamide (DMF) at room temperature and was purified by silica gel chromatography (10% methanol in DCM). The N-terminal Fmoc protecting group was removed using piperidine (20%) in DMF, and purified by silica gel chromatography (20% methanol in DCM, 0.5% HOAc). Finally, the t-butyl side chain protective groups were removed using 95% trifluoroacetic acid containing 2.5% water and 2.5% triisopropyl silane.
(§4) For all assays, the fluorescence and fluorescence-polarization was evaluated using a Tecan Polarion instrument with the excitation filter set at 485 nm and the emission filter set at 535 nm. For each assay, the concentration of the target protein was first establish by titration of the selected protein in order to produce a linear dose-response signal when incubated alone in the presence of the fluorescent probe. Upon establishing these conditions, the compounds potency (IC50) and selectivity, was assessed in the presence of a fix defined amount of target protein and fluorescent probe and a 10 point serial dilution of the selected compounds. For each IC50 curve, the assays were run as followed: 25 ul/well of diluted compound in 50 mM MES buffer pH 6.5 were added into a black 96 well plate then 25 ul/well of bovine serum albumin (BSA) at 0.5 mg/ml in 50 mM MES pH 6.5. Auto-fluorescence for each compound was first assessed by performing a reading of the compound/BSA solution alone. Then 25 ul of the fluorescein probe diluted into 50 mM MES containing 0.05 mg/ml BSA were added and a reading to detect quenching of fluorescein signal done. Finally 25 ul/well of the target or control protein (GST-BIRs) diluted at the appropriate concentration in 50 mM MES containing 0.05 mg/ml BSA were added and the fluorescence polarization evaluated.
(§5) For each assay the relative polarization-fluorescence units were plotted against the final concentrations of compound and the IC50 calculated using the Grad pad prism software and/or Cambridge soft. The ki value were derived from the calculated IC50 value as described above and according to the equation described in Nikolovska-Coleska, Z. (2004) Anal Biochem 332, 261-273.

[4] = molecular target: T3, XIAP bir3 domain (GST-XIAP BIR3RING) (Homo sapiens, UniProt P98170); experiment: Fluorescence polarization-based competition assay, XIAP; type: binding; conditions: Ki calculated from displacement of fluorescent probe; read-out: Fluorescent polarization (FP) assay Xiap
T3 construct: made in house; host or cells: E. coli DH5-alpha
Procedure: GST-XIAP BIR3RING: XIAP coding sequence amino acids 246-497 cloned into PGEX2T1 via BamH1 and AVA I. The plasmid was transformed into E. coli DH5a for use in protein expression and purification.
as §3, §4, §5

[5] = molecular target: T4, cIAP-1 bir3 domain (GST-HIAP2 (cIAP-1) BIR3) (Homo sapiens, UniProt Q13490); experiment: Fluorescence polarization-based competition assay, cIAP-1; type: binding; conditions: Ki calculated from displacement of fluorescent probe; read-out: Fluorescent polarization (FP) assay cIAP-1
T4 construct: made in house; host or cells: E. coli DH5-alpha
Procedure: GST-HIAP2 (cIAP-1) BIR3: HIAP2 coding sequence from amino acids 251-363 cloned into PGex4T3 via BamH1 and XhoI. The plasmid was transformed into E. coli DH5α for use in protein expression and purification.
as §3, §4, §5

[6] = system: SKOV-3 (ovarian) cancer cells; experiment: Cell viability (MTT) assay, SKOV3 cells; conditions: 72 hours, MTT based assay; compounds added either alone or in presence of 1-3 ng/ml of TRAIL
Procedure: as §1, §2

HCT-116 tumors = experiment: Combination anti-cancer therapy in vivo (HCT-116 tumors, with mitomycin-C); conditions: HCT-116 tumors in female nude mice
Procedure: Female nude mice received […] HCT-116 subdermally on the right flank. On day 26, when tumors were […], animals were assigned to groups using a balanced design based on tumor size. At that time mitomycin-C and Compound 23 treatment was initated. Mitomycin-C was administered ip at 1 mg/kg, Monday through Friday for two weeks. Compound 23 was given iv at 1 or 5 mg/kg five times per week for the duration of the experiment. Tumor measurements were taken twice weekly.

T1 sequence (P98170 93-497): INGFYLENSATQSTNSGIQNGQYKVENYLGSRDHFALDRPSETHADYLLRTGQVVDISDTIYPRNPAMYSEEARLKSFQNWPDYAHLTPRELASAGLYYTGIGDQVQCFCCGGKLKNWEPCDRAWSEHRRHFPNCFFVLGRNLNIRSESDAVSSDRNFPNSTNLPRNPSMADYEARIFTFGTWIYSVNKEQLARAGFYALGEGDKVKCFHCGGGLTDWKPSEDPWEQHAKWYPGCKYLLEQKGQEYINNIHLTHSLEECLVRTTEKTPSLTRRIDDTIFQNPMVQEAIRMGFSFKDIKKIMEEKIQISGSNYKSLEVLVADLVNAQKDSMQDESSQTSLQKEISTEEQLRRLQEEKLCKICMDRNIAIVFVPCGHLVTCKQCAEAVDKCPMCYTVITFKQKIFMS
T4 sequence (Q13490 251-363): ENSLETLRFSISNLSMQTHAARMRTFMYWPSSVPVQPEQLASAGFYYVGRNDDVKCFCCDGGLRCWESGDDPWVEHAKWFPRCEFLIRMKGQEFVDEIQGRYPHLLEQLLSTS
T2 sequence (Q13489 236-349): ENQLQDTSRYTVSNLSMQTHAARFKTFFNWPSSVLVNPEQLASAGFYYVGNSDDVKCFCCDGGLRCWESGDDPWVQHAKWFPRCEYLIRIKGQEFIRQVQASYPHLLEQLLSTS
T3 sequence (P98170 246-497): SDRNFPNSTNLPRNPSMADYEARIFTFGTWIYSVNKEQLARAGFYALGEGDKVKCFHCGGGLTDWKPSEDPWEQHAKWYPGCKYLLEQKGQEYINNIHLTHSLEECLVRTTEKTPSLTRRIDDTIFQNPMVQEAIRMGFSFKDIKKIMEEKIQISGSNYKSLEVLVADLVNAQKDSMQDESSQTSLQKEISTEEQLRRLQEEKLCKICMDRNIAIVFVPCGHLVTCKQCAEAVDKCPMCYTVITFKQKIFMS

SMILES | EC50 ([2]; MDA-MB-231, 72 h) | Ki [3] | Ki [4] | Ki [5] | EC50 [6] | IC50 [1] | EC50 ([2]; MDA-MB-231, 72 hours) | anti-tumor effect at 5 mg/kg compared to the 1 mg/kg dose (HCT-116 tumors; 5 mg/kg iv in combination with mitomycin-C ip 1 mg/kg) | anti-tumor effect in combination with mitomycin-C (HCT-116 tumors; iv at 1 or 5 mg/kg five times per week, mitomycin-C ip 1 mg/kg)
CN[C@@H](C)C(=O)N[C@H](C(=O)N1CCC[C@H]1CN(CCc1ccccc1)S(=O)(=O)Cc1ccccc1)[C@@H](C)OCC#CC#CCO[C@H](C)[C@H](NC(=O)[C@H](C)NC)C(=O)N1CCC[C@H]1CN(CCc1ccccc1)S(=O)(=O)Cc1ccccc1 [Compound 6] | – | – | ≤ 5 nM | – | – | ≤ 500 nM | < 100 nM | – | –
CN[C@@H](C)C(=O)N[C@H](C(=O)N1CCC[C@H]1CN(CCc1ccccc1)C(=O)[C@H](N)Cc1ccc(OC)cc1)[C@@H](C)OCC#CC#CCO[C@H](C)[C@H](NC(=O)[C@H](C)NC)C(=O)N1CCC[C@H]1CN(CCc1ccccc1)C(=O)[C@H](N)Cc1ccc(OC)cc1 [Compound 2] | – | ≥ 100 nM | ≤ 100 nM | ≤ 100 nM | – | ≤ 100 nM | < 100 nM | – | –
CN[C@@H](C)C(=O)N[C@@H](COCc1ccc(-c2ccc(COC[C@H](NC(=O)[C@H](C)NC)C(=O)N3CCC[C@H]3CN(CCc3ccccc3)C(=O)C(F)(F)F)cc2)cc1)C(=O)N1CCC[C@H]1CN(CCc1ccccc1)C(=O)C(F)(F)F [Compound 12] | – | ≤ 5 nM | ≥ 100 nM | ≤ 100 nM | – | ≥ 1000 nM | < 100 nM | – | –
CN[C@@H](C)C(=O)N[C@H](C(=O)N1CCC[C@H]1CN(CCc1ccccc1)S(=O)(=O)c1ccccc1)[C@@H](C)OCC#CC#CCO[C@H](C)[C@H](NC(=O)[C@H](C)NC)C(=O)N1CCC[C@H]1CN(CCc1ccccc1)S(=O)(=O)c1ccccc1 [Compound 4] | – | – | ≤ 5 nM | – | – | ≤ 500 nM | < 100 nM | – | –
CN[C@@H](C)C(=O)N[C@H](C(=O)N1CCC[C@H]1CN(CCc1ccccc1)C(=O)C(F)(F)F)[C@@H](C)OCC#CC#CCO[C@H](C)[C@H](NC(=O)[C@H](C)NC)C(=O)N1CCC[C@H]1CN(CCc1ccccc1)C(=O)C(F)(F)F [Compound 1] | < 100 nM | ≥ 100 nM | ≤ 100 nM | ≥ 100 nM | < 100 nM | ≤ 100 nM | – | – | –
CN[C@@H](C)C(=O)N[C@H](C(=O)N1CCC[C@H]1CN(CCc1ccccc1)C(=O)c1ccccc1)[C@@H](C)OCC#CC#CCO[C@H](C)[C@H](NC(=O)[C@H](C)NC)C(=O)N1CCC[C@H]1CN(CCc1ccccc1)C(=O)c1ccccc1 [Compound 3] | < 100 nM | ≤ 5 nM | ≤ 100 nM | ≤ 100 nM | – | ≤ 500 nM | – | – | –
CN[C@@H](C)C(=O)N[C@H](C(=O)N1CCC[C@H]1CN(CCc1ccccc1)C(=O)OCc1ccccc1)[C@@H](C)OCC#CC#CCO[C@H](C)[C@H](NC(=O)[C@H](C)NC)C(=O)N1CCC[C@H]1CN(CCc1ccccc1)C(=O)OCc1ccccc1 [Compound 7] | – | – | ≤ 100 nM | – | – | ≤ 500 nM | < 100 nM | – | –

Continued, in another order:

EC50 ([2]; MDA-MB-231, 72 h) | Ki [3] | Ki [4] | Ki [5] | EC50 [6] | SMILES | IC50 [1] | EC50 ([2]; MDA-MB-231, 72 hours) | anti-tumor effect at 5 mg/kg compared to the 1 mg/kg dose (HCT-116 tumors; 5 mg/kg iv in combination with mitomycin-C ip 1 mg/kg) | anti-tumor effect in combination with mitomycin-C (HCT-116 tumors; iv at 1 or 5 mg/kg five times per week, mitomycin-C ip 1 mg/kg)
< 100 nM | ≥ 100 nM | – | – | – | CN[C@@H](C)C(=O)N[C@@H](COCc1ccc(COC[C@H](NC(=O)[C@H](C)NC)C(=O)N2CCC[C@H]2CN(CCc2ccccc2)C(=O)C(F)(F)F)cc1)C(=O)N1CCC[C@H]1CN(CCc1ccccc1)C(=O)C(F)(F)F [Compound 11] | ≥ 1000 nM | – | – | –
< 1000 nM | – | ≤ 100 nM | – | – | CN[C@@H](C)C(=O)N[C@@H](COC(=O)CCCCCC(=O)OC[C@H](NC(=O)[C@H](C)NC)C(=O)N1CCC[C@H]1CN(CCc1ccccc1)C(=O)c1ccccc1)C(=O)N1CCC[C@H]1CN(CCc1ccccc1)C(=O)c1ccccc1 [Compound 13] | – | – | – | –
< 1000 nM | – | ≤ 100 nM | – | – | CN[C@@H](C)C(=O)N[C@@H](COC(=O)c1ccc(C(=O)OC[C@H](NC(=O)[C@H](C)NC)C(=O)N2CCC[C@H]2CN(CCc2ccccc2)C(=O)c2ccccc2)cc1)C(=O)N1CCC[C@H]1CN(CCc1ccccc1)C(=O)c1ccccc1 [Compound 14] | – | – | – | –
< 100 nM | – | ≤ 5 nM | – | – | CN[C@@H](C)C(=O)N[C@H](C(=O)N1CCC[C@H]1CN(CCc1ccccc1)S(C)(=O)=O)[C@@H](C)OCC#CC#CCO[C@H](C)[C@H](NC(=O)[C@H](C)NC)C(=O)N1CCC[C@H]1CN(CCc1ccccc1)S(C)(=O)=O [Compound 8] | ≤ 500 nM | – | – | –
< 100 nM | ≤ 100 nM | ≤ 100 nM | ≤ 5 nM | < 100 nM | CN[C@@H](C)C(=O)N[C@H](C(=O)N1CCC[C@H]1C(=O)N[C@@H]1CCCc2ccccc21)[C@@H](C)OCC#CC#CCO[C@H](C)[C@H](NC(=O)[C@H](C)NC)C(=O)N1CCC[C@H]1C(=O)N[C@@H]1CCCc2ccccc21 [Compound 23] | ≤ 500 nM | – | superior anti-tumor effects | increasing anti-tumor effect in combination with mitomycin-C with increasing dose
